Experimental data published in US11639343B2, “Compounds targeting and degrading BCR-ABL protein and its antitumor application” (ShanghaiTech University, priority 2019, dated 2023).

Experiments:
HEK293 (BCR-ABL-) cells = assay: CCK-8 proliferation inhibition, HEK293 cells; settings: Homo sapiens, HEK293, 48 h, read-out: Proliferative inhibitory activity (IC50, nM) HEK293 (BCR-ABL-);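 note: Ten-point threefold dilution series starting at 10 µM, CCK-8 absorbance at 450 nm read after 2 h reagent incubation, DMSO-treated cells as negative control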
BCR-ABL protein = BCR-ABL protein (Homo sapiens, UniProt P00519); assay: Western blot degradation of BCR-ABL in K562 cells; assay type: cell-based; parameters: Western blot was used to detect the expression of BCR-ABL and c-ABL protein in K562 cells; BCR (fusion partner, P11274); endogenous in cells; host or cells: K562; the other entry of the earlier key: BCR (P11274, Breakpoint cluster region protein); settings: 16 hours; for DC50: 1 nM-10 μM
Sequence of BCR-ABL protein (P00519 with tags, fused parts or gaps): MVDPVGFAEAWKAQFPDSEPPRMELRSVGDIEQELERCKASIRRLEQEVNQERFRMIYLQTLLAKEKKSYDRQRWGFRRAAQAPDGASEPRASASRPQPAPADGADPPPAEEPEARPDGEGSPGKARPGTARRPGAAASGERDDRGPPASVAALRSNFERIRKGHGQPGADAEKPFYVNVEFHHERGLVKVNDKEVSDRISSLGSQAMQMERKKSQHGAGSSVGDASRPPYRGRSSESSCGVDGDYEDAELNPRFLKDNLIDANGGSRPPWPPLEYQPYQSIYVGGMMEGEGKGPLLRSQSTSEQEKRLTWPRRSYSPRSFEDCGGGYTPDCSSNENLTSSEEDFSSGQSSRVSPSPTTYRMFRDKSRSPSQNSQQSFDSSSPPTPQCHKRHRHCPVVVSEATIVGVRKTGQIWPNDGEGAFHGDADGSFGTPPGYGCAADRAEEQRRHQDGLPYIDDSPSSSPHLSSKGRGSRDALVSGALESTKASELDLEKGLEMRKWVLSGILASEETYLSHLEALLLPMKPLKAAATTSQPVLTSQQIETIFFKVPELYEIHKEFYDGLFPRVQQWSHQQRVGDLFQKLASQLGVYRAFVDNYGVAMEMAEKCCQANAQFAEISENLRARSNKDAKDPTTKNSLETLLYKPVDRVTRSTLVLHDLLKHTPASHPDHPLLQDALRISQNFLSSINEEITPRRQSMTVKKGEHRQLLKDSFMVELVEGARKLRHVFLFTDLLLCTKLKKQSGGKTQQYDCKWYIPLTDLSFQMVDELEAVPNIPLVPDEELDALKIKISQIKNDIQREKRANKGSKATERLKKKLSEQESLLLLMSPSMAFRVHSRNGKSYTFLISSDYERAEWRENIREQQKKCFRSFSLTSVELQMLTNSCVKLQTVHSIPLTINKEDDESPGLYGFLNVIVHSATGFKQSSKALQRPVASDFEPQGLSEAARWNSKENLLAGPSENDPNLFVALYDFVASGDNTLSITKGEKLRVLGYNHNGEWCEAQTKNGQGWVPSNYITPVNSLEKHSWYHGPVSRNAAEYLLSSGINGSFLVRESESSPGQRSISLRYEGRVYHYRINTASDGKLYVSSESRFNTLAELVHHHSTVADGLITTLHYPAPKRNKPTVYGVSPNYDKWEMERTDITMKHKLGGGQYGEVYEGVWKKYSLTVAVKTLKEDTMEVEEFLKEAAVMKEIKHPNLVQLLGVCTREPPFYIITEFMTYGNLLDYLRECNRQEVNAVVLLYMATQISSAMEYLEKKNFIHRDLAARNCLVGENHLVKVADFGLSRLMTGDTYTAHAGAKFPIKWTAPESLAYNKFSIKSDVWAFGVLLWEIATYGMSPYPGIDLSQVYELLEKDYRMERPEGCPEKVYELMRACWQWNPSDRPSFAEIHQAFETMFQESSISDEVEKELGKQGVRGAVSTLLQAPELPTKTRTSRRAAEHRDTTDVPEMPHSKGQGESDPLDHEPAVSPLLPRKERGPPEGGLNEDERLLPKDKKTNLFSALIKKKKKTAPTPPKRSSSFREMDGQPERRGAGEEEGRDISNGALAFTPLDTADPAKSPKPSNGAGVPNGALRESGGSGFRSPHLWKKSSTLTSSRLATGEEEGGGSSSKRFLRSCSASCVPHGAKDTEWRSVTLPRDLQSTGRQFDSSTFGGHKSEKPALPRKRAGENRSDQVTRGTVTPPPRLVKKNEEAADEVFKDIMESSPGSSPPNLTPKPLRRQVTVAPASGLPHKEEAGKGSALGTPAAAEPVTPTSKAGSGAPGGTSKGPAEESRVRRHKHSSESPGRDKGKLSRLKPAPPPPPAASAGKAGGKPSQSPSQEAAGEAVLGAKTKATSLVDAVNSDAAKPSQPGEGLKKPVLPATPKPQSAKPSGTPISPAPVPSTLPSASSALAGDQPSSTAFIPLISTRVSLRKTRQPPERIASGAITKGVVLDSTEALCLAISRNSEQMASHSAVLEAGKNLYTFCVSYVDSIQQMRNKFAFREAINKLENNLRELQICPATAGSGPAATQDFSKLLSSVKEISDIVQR
Method: (§1) (1) Cell seed: K562 cells were added to the 24 well plates, with a cell density of 3×10^5/ml and a total volume of 1.5 ml; Five concentration gradients, 1 nm, 10 nm, 100 nm, 1 μM, and 10 μM, were respectively set for PROTAD series compounds and comparative examples compounds (Dasa-6-2-2-6-VHL, Dasa-6-2-6-CRBN). […] After 16 hours of drug treatment, the cells were collected in 1.5 ml ep tube, centrifuged at 3000 rpm for 3 minutes, and then added 30 μL PBS and 30 ul 2×SDS to cell precipitated, lysate Heat at 100° C. for 5 minutes, then place on ice for 5 minutes, centrifuged at 10000 rpm for 5 minutes, and take the supernatant as the total protein extracted. The protein concentration was determined by the Bradford method. After each sample was at the same concentration, bromophenol blue was added as the sample indicator.
(§2) (2) Electrophoresis: the starting voltage of the BioRad electrophoresis instrument was 80V, and as the dye enters the separation gel, the voltage was adjusted to 120V;
(§3) (3) Film transfer: prepare filter paper and nitrocellulose membrane with the corresponding size of the gel, filter paper, and NC film were soaked in transfer electrophoresis buffer.
(§4) DC50 (concentration required to degrade protein by half) were calculated based on the intensity from western blot, and data were analyzed via Prism GraphPad with non-linear regression.

K562 (BCR-ABL+) cells = assay: CCK-8 proliferation inhibition, K562 cells; assay type: cell-based, human; settings: Homo sapiens, K562, 48 h, CCK-8, 48 hours of drug treatment; read-out: Proliferative inhibitory activity (IC50, nM) K562 (BCR-ABL+);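 note: Ten-point threefold dilution series starting at 10 µM, absorbance at 450 nm after 2 h with CCK-8, DMSO as negative control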
c-ABL protein = c-ABL protein (Homo sapiens, UniProt P00519); assay: Western blot degradation of c-ABL in K562 cells; assay type: cell-based; parameters: Western blot was used to detect the expression of BCR-ABL and c-ABL protein in K562 cells; endogenous in cells; host or cells: K562; settings: 16 hours, 1 nM-10 μM
Sequence of c-ABL protein (P00519 whole entry): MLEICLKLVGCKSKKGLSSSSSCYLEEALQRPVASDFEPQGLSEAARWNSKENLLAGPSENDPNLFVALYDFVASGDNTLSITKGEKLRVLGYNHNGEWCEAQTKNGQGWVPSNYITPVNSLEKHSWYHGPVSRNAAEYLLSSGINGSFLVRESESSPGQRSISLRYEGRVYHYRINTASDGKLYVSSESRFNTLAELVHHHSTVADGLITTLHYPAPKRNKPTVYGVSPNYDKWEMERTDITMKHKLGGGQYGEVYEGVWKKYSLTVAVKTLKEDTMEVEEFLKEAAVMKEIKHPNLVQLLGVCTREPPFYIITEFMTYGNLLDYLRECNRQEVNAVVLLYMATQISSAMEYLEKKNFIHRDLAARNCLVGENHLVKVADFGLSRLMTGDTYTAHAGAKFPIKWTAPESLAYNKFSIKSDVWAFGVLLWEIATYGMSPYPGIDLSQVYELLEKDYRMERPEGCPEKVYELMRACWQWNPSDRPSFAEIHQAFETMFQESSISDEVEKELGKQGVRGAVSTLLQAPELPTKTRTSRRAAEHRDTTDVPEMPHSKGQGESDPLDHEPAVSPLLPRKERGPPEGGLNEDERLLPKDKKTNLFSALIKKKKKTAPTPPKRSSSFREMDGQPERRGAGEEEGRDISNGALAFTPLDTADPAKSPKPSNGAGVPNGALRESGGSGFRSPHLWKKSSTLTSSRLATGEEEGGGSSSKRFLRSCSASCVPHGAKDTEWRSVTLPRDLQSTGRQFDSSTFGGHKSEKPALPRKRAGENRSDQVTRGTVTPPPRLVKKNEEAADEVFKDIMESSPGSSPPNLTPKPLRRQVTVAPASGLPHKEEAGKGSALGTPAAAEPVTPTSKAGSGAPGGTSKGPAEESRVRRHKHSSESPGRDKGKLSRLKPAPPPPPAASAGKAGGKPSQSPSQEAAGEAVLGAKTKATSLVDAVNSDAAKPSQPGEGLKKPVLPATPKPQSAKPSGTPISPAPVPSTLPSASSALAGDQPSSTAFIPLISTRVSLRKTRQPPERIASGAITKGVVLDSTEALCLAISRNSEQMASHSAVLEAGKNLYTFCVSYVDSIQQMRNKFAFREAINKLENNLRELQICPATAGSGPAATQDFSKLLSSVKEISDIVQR
Method: as §1, §2, §3, §4

U937 (BCR-ABL-) cells = assay: CCK-8 proliferation inhibition, U937 cells; assay type: cell-based, human; settings: Homo sapiens, U-937; CCK-8, 48 hours of drug treatment, highest concentration 10 μM; read-out: Proliferative inhibitory activity (IC50, nM) U937 (BCR-ABL-);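 note: Ten-point threefold dilution series, absorbance at 450 nm after 2 h with CCK-8 reagent, DMSO as negative control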

SMILES: Cc1nc(Nc2ncc(C(=O)Nc3c(C)cccc3Cl)s2)cc(N2CCN(C(=O)CCCCCCNc3cccc4c3C(=O)N(C3CCC(=O)NC3=O)C4=O)CC2)n1 (stereo not shown) [SIAIS151181, N-(2-chloro-6-methylphenyl)-2-((6-(4-(7-((2-(2,6-dioxopiperidin-3-yl)-1,3-dioxoisoindolin-4-yl)amino)heptanoyl)piperazin-1-yl)-2-methylpyrimidin-4-yl)amino)thiazole-5-carboxamide]
- IC50 (HEK293 (BCR-ABL-) cells): > 10000 nM
- DC50 (BCR-ABL protein): 1 to 10 nM
- IC50 (K562 (BCR-ABL+) cells): 1.47 nM
- DC50 (c-ABL protein): 1 to 10 nM
- IC50 (U937 (BCR-ABL-) cells): > 10000 nM

SMILES: Cc1nc(Nc2ncc(C(=O)Nc3c(C)cccc3Cl)s2)cc(N2CCN(C(=O)CCCCCCCCC(=O)N[C@H](C(=O)N3C[C@H](O)C[C@H]3C(=O)NCc3ccc(-c4scnc4C)cc3)C(C)(C)C)CC2)n1 [SIAIS151180, N-(2-chloro-6-methylphenyl)-2-((6-(4-(10-(((S)-1-((2S,4R)-4-hydroxy-2-((4-(4-methylthiazol-5-yl)benzyl)carbamoyl)pyrrolidin-1-yl)-3,3-dimethyl-1-oxobutan-2-yl)amino)-10-oxodecanoyl)piperazin-1-yl)-2-methylpyrimidin-4-yl)amino)thiazole-5-carboxamide]
- IC50 (HEK293 (BCR-ABL-) cells): > 10000 nM
- DC50 (BCR-ABL protein): 1 to 10 nM
- IC50 (K562 (BCR-ABL+) cells): 14.3 nM
- DC50 (c-ABL protein): 10 to 100 nM
- IC50 (U937 (BCR-ABL-) cells): > 10000 nM

SMILES: Cc1nc(Nc2ncc(C(=O)Nc3c(C)cccc3Cl)s2)cc(N2CCN(C(=O)CCOCCOCCOCCOCCC(=O)N[C@H](C(=O)N3C[C@H](O)C[C@H]3C(=O)NCc3ccc(-c4scnc4C)cc3)C(C)(C)C)CC2)n1 [SIAIS151078, N-(2-chloro-6-methylphenyl)-2-((6-(4-((S)-18-((2S,4R)-4-hydroxy-2-((4-(4-methylthiazol-5-yl)benzyl)carbamoyl)pyrrolidine-1-carbonyl)-19,19-dimethyl-16-oxo-4,7,10,13-tetraoxa-17-azaicosanoyl)piperazin-1-yl)-2-methylpyrimidin-4-yl)amino)thiazole-5-carboxamide]
- IC50 (HEK293 (BCR-ABL-) cells): > 10000 nM
- DC50 (BCR-ABL protein): 100 to 1000 nM
- IC50 (K562 (BCR-ABL+) cells): 2160 nM
- DC50 (c-ABL protein): > 1000 nM
- IC50 (U937 (BCR-ABL-) cells): > 10000 nM

SMILES: Cc1nc(Nc2ncc(C(=O)Nc3c(C)cccc3Cl)s2)cc(N2CCN(C(=O)CCC(=O)Nc3cccc4c3CN(C3CCC(=O)NC3=O)C4=O)CC2)n1 (stereo not shown) [SIAIS164109, N-(2-chloro-6-methylphenyl)-2-((6-(4-(4-((2-(2,6-dioxopiperidin-3-yl)-1-oxoisoindolin-4-yl)amino)-4-oxobutanoyl)piperazin-1-yl)-2-methylpyrimidin-4-yl)amino)thiazole-5-carboxamide]
- IC50 (HEK293 (BCR-ABL-) cells): > 10000 nM
- DC50 (BCR-ABL protein): 100 to 1000 nM
- IC50 (K562 (BCR-ABL+) cells): 7.08 nM
- DC50 (c-ABL protein): 100 to 1000 nM
- IC50 (U937 (BCR-ABL-) cells): > 10000 nM

SMILES: Cc1nc(Nc2ncc(C(=O)Nc3c(C)cccc3Cl)s2)cc(N2CCN(C(=O)CCOCCNc3cccc4c3C(=O)N(C3CCC(=O)NC3=O)C4=O)CC2)n1 (stereo not shown) [SIAIS151063, N-(2-chloro-6-methylphenyl)-2-((6-(4-(3-(2-((2-(2,6-dioxopiperidin-3-yl)-1,3-dioxoisoindolin-4-yl)amino)ethoxy)propanoyl)piperazin-1-yl)-2-methylpyrimidin-4-yl)amino)thiazole-5-carboxamide]
- IC50 (HEK293 (BCR-ABL-) cells): 972 nM
- DC50 (BCR-ABL protein): 1 to 10 nM
- IC50 (K562 (BCR-ABL+) cells): 2.7 nM
- DC50 (c-ABL protein): 1 to 10 nM
- IC50 (U937 (BCR-ABL-) cells): 276 nM

SMILES: Cc1nc(Nc2ncc(C(=O)Nc3c(C)cccc3Cl)s2)cc(N2CCN(C(=O)CCCCCOCCOCCOCCCCCC(=O)Nc3cccc4c3C(=O)N(C3CCC(=O)NC3=O)C4=O)CC2)n1 (stereo not shown) [SIAIS171114, N-(2-chloro-6-methylphenyl)-2-((6-(4-(6-(2-(2-((6-((2-(2,6-dioxopiperidin-3-yl)-1,3-dioxoisoindolin-4-yl)amino)-6-oxohexyl)oxy)ethoxy)ethoxy)hexanoyl)piperazin-1-yl)-2-methylpyrimidin-4-yl)amino)thiazole-5-carboxamide]
- IC50 (HEK293 (BCR-ABL-) cells): > 10000 nM
- DC50 (BCR-ABL protein): 10 to 100 nM
- IC50 (K562 (BCR-ABL+) cells): 2.57 nM
- DC50 (c-ABL protein): 10 to 100 nM
- IC50 (U937 (BCR-ABL-) cells): > 10000 nM

SMILES: COc1cc(Nc2c(C#N)cnc3cc(OCCCN4CCN(C(=O)CCCCCCNc5cccc6c5C(=O)N(C5CCC(=O)NC5=O)C6=O)CC4)c(OC)cc23)c(Cl)cc1Cl (stereo not shown) [SIAIS151167, 4-((2,4-dichloro-5-methoxyphenyl)amino)-7-(3-(4-(7-((2-(2,6-dioxopiperidin-3-yl)-1,3-dioxoisoindolin-4-yl)amino)heptanoyl)piperazin-1-yl)propoxy)-6-methoxyquinoline-3-carbonitrile]
- IC50 (HEK293 (BCR-ABL-) cells): > 10000 nM
- DC50 (BCR-ABL protein): 10 to 100 nM
- IC50 (K562 (BCR-ABL+) cells): 3650 nM
- DC50 (c-ABL protein): 10 to 100 nM
- IC50 (U937 (BCR-ABL-) cells): > 10000 nM

SMILES: Cc1nc(Nc2ncc(C(=O)Nc3c(C)cccc3Cl)s2)cc(N2CCN(C(=O)CC(=O)Nc3cccc4c3CN(C3CCC(=O)NC3=O)C4=O)CC2)n1 (stereo not shown) [SIAIS164108, N-(2-chloro-6-methylphenyl)-2-((6-(4-(3-((2-(2,6-dioxopiperidin-3-yl)-1-oxoisoindolin-4-yl)amino)-3-oxopropanoyl)piperazin-1-yl)-2-methylpyrimidin-4-yl)amino)thiazole-5-carboxamide]
- IC50 (HEK293 (BCR-ABL-) cells): > 10000 nM
- DC50 (BCR-ABL protein): 10 to 100 nM
- IC50 (K562 (BCR-ABL+) cells): 12.2 nM
- DC50 (c-ABL protein): 10 to 100 nM
- IC50 (U937 (BCR-ABL-) cells): > 10000 nM

SMILES: Cc1nc(Nc2ncc(C(=O)Nc3c(C)cccc3Cl)s2)cc(N2CCN(C(=O)CCC(=O)N[C@H](C(=O)N3C[C@H](O)C[C@H]3C(=O)NCc3ccc(-c4scnc4C)cc3)C(C)(C)C)CC2)n1 [SIAIS151174, N-(2-chloro-6-methylphenyl)-2-((6-(4-(4-(((S)-1-((2S,4R)-4-hydroxy-2-((4-(4-methylthiazol-5-yl)benzyl)carbamoyl)pyrrolidin-1-yl)-3,3-dimethyl-1-oxobutan-2-yl)amino)-4-oxobutanoyl)piperazin-1-yl)-2-methylpyrimidin-4-yl)amino)thiazole-5-carboxamide]
- IC50 (HEK293 (BCR-ABL-) cells): > 10000 nM
- DC50 (BCR-ABL protein): 100 to 1000 nM
- IC50 (K562 (BCR-ABL+) cells): 78 nM
- DC50 (c-ABL protein): 100 to 1000 nM
- IC50 (U937 (BCR-ABL-) cells): > 10000 nM

SMILES: Cc1nc(Nc2ncc(C(=O)Nc3c(C)cccc3Cl)s2)cc(N2CCN(CCCCCCOCCOCCOCCCCCC(=O)N[C@H](C(=O)N3C[C@H](O)C[C@H]3C(=O)NCc3ccc(-c4scnc4C)cc3)C(C)(C)C)CC2)n1 [Dasa-6-2-2-6-vhl, N-(2-chloro-6-methylphenyl)-2-((6-(4-((S)-3-((2S,4R)-4-hydroxy-2-((4-(4-methylthiazol-5-yl)benzyl)carbamoyl)pyrrolidine-1-carbonyl)-2,2-dimethyl-5-oxo-11,14,17-trioxa-4-azatricosan-23-yl)piperazin-1-yl)-2-methylpyrimidin-4-yl)amino)thiazole-5-carboxamide, reference compound]
- degradation of BCR-ABL protein (in words) (BCR-ABL protein): cannot degrade BCR-ABL protein

SMILES: Cc1ccc(NC(=O)c2ccc(CN3CCN(C(=O)CCOCCOCCOCCOCCC(=O)N[C@H](C(=O)N4C[C@H](O)C[C@H]4C(=O)NCc4ccc(-c5scnc5C)cc4)C(C)(C)C)CC3)cc2)cc1Nc1nccc(-c2cccnc2)n1 [SIAIS1197039, (2S,4R)-1-((S)-2-(tert-butyl)-19-(4-(4-((4-methyl-3-((4-(pyridin-3-yl)pyrimidin-2-yl)amino)phenyl)carbamoyl)benzyl)piperazin-1-yl)-4,19-dioxo-7,10,13,16-tetraoxa-3-azanonadecanoyl)-4-hydroxy-N-(4-(4-methylthiazol-5-yl)benzyl)pyrrolidine-2-carboxamide]
- DC50 (BCR-ABL protein): 1000 nM
- DC50 (c-ABL protein): 1000 nM

SMILES: COc1cc(Nc2c(C#N)cnc3cc(OCCCN4CCN(C(=O)CNc5cccc6c5C(=O)N(C5CCC(=O)NC5=O)C6=O)CC4)c(OC)cc23)c(Cl)cc1Cl (stereo not shown) [SIAIS151164, 4-((2,4-dichloro-5-methoxyphenyl)amino)-7-(3-(4-((2-(2,6-dioxopiperidin-3-yl)-1,3-dioxoisoindolin-4-yl)glycyl)piperazin-1-yl)propoxy)-6-methoxyquinoline-3-carbonitrile]
- DC50 (BCR-ABL protein): 10 to 100 nM
- DC50 (c-ABL protein): 10 to 100 nM

SMILES: Cc1ccc(NC(=O)c2ccc(CN3CCN(C(=O)CCCCCCC(=O)N[C@H](C(=O)N4C[C@H](O)C[C@H]4C(=O)NCc4ccc(-c5scnc5C)cc4)C(C)(C)C)CC3)cc2)cc1Nc1nccc(-c2cccnc2)n1 [SIAIS074031, (2S,4R)-1-((S)-3,3-dimethyl-2-(8-(4-(4-((4-methyl-3-((4-(pyridin-3-yl)pyrimidin-2-yl)amino)phenyl)carbamoyl)benzyl)piperazin-1-yl)-8-oxooctanamido)butanoyl)-4-hydroxy-N-(4-(4-methylthiazol-5-yl)benzyl)pyrrolidine-2-carboxamide]
- DC50 (BCR-ABL protein): 100 to 1000 nM
- DC50 (c-ABL protein): 100 to 1000 nM
